This assay has as its system Nude mice, LX-1 lung xenograft intrarenal, tumor weight T/C. Kind of assay: NCI In Vivo Anticancer Drug Screen. Data for tumor model Human Lung LX-1 Xenograft (intrarenal inoculation) in NU/NU BALB/C (nude) mice. The conditions noted are these: endpoint: mean tumor weight change, higher = larger tumour. How it is done: The antitumor activity of compounds was measured in mice bearing transplantable tumors. Survival or tumor size were measured and the results are expressed as the measurement made in the treated group (T) divided by the measurement made in the vehicle treated control group (C). The tumor model used in this assay is Human Lung LX-1 Xenograft (intrarenal inoculation) in NU/NU BALB/C (nude) mice
On the technique in general: In xenograft studies the graft and the host belong to different species.

Where [1] appears, read: dose: 300.0 mg/kg/injection, schedule: Q04DX003 (sc), vehicle: Klucel (hydroxypropylcellulose) (HPC).
The mark [2] stands for this setting: dose: 600.0 mg/kg/injection, schedule: Q04DX003 (sc), vehicle: Klucel (hydroxypropylcellulose) (HPC).
[3] abbreviates: dose: 1200.0 mg/kg/injection, schedule: Q04DX003 (sc), vehicle: Klucel (hydroxypropylcellulose) (HPC).
The mark [4] stands for this setting: dose: 2400.0 mg/kg/injection, schedule: Q04DX003 (sc), vehicle: Klucel (hydroxypropylcellulose) (HPC).

SMILES strings stand for the structures. “And” between values parts separate entries of the source, which are not always exact repeats. Equal values may be shown once. Results filed as inconclusive are left out.

This note sets out measurements from PubChem BioAssay AID266 (DTP/NCI, 2004).

`COc1ccc2ccccc2c1C1NC(=O)c2ccccc2N1` (stereo not drawn): the T/C reads like this: under setting [1], 113 % of control; under setting [2], 78 % of control; under setting [3], 83 % of control; under setting [4], 83 % of control.
For the compound `NCCCNCCSP(=O)(O)O`, the T/C runs as follows: (dose: 200.0 mg/kg/injection, schedule: Q04DX003 (sc), vehicle: saline) 99 % of control; (dose: 400.0 mg/kg/injection, schedule: Q04DX003 (sc), vehicle: saline) 78 % of control; (dose: 800.0 mg/kg/injection, schedule: Q04DX003 (sc), vehicle: saline) 80 % of control.
For the compound `CC(C)CCC(=O)c1ccoc1`, the T/C reads like this: (dose: 0.75 mg/kg/injection, schedule: Q01DX010 (ip), vehicle: saline with Tween-80) 123 % of control; (dose: 3.0 mg/kg/injection, schedule: Q01DX010 (ip), vehicle: saline with Tween-80) 71 % of control; (dose: 6.0 mg/kg/injection, schedule: Q01DX010 (ip), vehicle: saline with Tween-80) 73 % of control.
As for `O=NN(CCCl)C(=O)NC1CCC(=O)NC1=O` (stereo not drawn), the T/C was 25 % of control (dose: 1.56 mg/kg/injection, schedule: Q01DX010 (sc), vehicle: saline with Tween-80); 12 % of control (dose: 3.13 mg/kg/injection, schedule: Q01DX010 (sc), vehicle: saline with Tween-80); 58 % of control (dose: 5.2 mg/kg/injection, schedule: Q04DX003 (sc), vehicle: saline with Tween-80); 1 % of control (dose: 6.25 mg/kg/injection, schedule: Q01DX010 (sc), vehicle: saline with Tween-80); 3 % of control (dose: 10.4 mg/kg/injection, schedule: Q04DX003 (sc), vehicle: saline with Tween-80); -100 % of control (dose: 12.5 mg/kg/injection, schedule: Q01DX010 (sc), vehicle: saline with Tween-80). In addition, for the setting “dose: 20.8 mg/kg/injection, schedule: Q04DX003 (sc), vehicle: saline with Tween-80”, the T/C was -47 % of control.
For the compound `CCOC(=O)C(N)CSC(=O)NC` (stereo not drawn), the T/C is, setting by setting: (dose: 150.0 mg/kg/injection, schedule: Q04DX003 (ip), vehicle: saline) 82 % of control; (dose: 300.0 mg/kg/injection, schedule: Q04DX003 (ip), vehicle: saline) 52 % of control; (dose: 600.0 mg/kg/injection, schedule: Q04DX003 (ip), vehicle: saline) 102 % of control.
Turning to `CC(=O)O[C@H]1C(=O)[C@@]2(C)[C@H]([C@H](OC(=O)c3ccccc3)[C@]3(O)C[C@H](OC(=O)[C@H](O)[C@@H](NC(=O)c4ccccc4)c4ccccc4)C(C)=C1C3(C)C)[C@]1(OC(C)=O)CO[C@@H]1C[C@@H]2O`, the T/C is 63 % of control (dose: 50.0 mg/kg/injection, schedule: Q01DX010 (sc), vehicle: Klucel (hydroxypropylcellulose) (HPC)); 93 % of control (dose: 100.0 mg/kg/injection, schedule: Q01DX010 (sc), vehicle: Klucel (hydroxypropylcellulose) (HPC)); 68 % of control (dose: 200.0 mg/kg/injection, schedule: Q01DX010 (sc), vehicle: Klucel (hydroxypropylcellulose) (HPC)); 51 % of control (dose: 400.0 mg/kg/injection, schedule: Q01DX010 (sc), vehicle: Klucel (hydroxypropylcellulose) (HPC)).
In the case of `Cc1cnc(/C=N\NC(N)=S)c2cccc(N)c12`, the T/C is, setting by setting: (dose: 31.75 mg/kg/injection, schedule: Q04DX003 (ip), vehicle: saline with Tween-80) 74 % of control; (dose: 62.5 mg/kg/injection, schedule: Q04DX003 (ip), vehicle: saline with Tween-80) 89 % of control; (dose: 125.0 mg/kg/injection, schedule: Q04DX003 (ip), vehicle: saline with Tween-80) 49 % of control.
Consider `CC(=O)N(C)O`, for which, for the setting “dose: 150.0 mg/kg/injection, schedule: Q04DX003 (sc), vehicle: saline with Tween-80”, the T/C was 92 % of control.
In the case of `O=Cc1ccc(C=O)c(Cl)c1`, the T/C was 81 % of control under setting [1], 88 % of control under setting [2], 79 % of control under setting [3] and 152 % of control under setting [4].
With `COc1ccc2cc1Oc1ccc(cc1)C[C@H]1c3cc(c(OC)cc3CCN1C)Oc1c(OC)c(OC)cc3c1[C@H](C2)N(C)CC3`, the T/C was 110 % of control (dose: 100.0 mg/kg/injection, schedule: Q01DX010 (sc), vehicle: saline with Tween-80) and 122 % of control (dose: 200.0 mg/kg/injection, schedule: Q01DX010 (sc), vehicle: saline with Tween-80).
As for `CN(C)c1ccc2c(NCCCCCCNc3ccnc4cc(N(C)C)ccc34)ccnc2c1`, the T/C runs as follows: (dose: 37.5 mg/kg/injection, schedule: Q04DX003 (sc), vehicle: distilled water + Tween-80 + alcohol) 122 % of control; (dose: 75.0 mg/kg/injection, schedule: Q04DX003 (sc), vehicle: distilled water + Tween-80 + alcohol) 80 % of control; (dose: 150.0 mg/kg/injection, schedule: Q04DX003 (sc), vehicle: distilled water + Tween-80 + alcohol) 75 % of control.
As for `COc1cccc2c1C(=O)c1c(O)c3c(c(O)c1C2=O)C[C@@](O)(C(=O)CO)C[C@@H]3OC1CC(OC(C)=O)C(OC(C)=O)C(C)O1` (stereo partly drawn), under “dose: 25.0 mg/kg/injection, schedule: Q01DX010 (sc), vehicle: distilled water + Tween-80”, the T/C is 53 % of control.
For the compound `CC[C@@]1(O)C[C@H](OC2CC(N(C)C)C(OC3CC(O)C(OC4CCC(=O)C(C)O4)C(C)O3)C(C)O2)c2c(cc3c(c2O)C(=O)c2c(O)cccc2C3=O)[C@H]1C(=O)OC` (stereo partly drawn), the T/C is, setting by setting: (dose: 1.0 mg/kg/injection, schedule: Q01DX010 (sc), vehicle: water) 36 % of control; (dose: 1.66 mg/kg/injection, schedule: Q04DX003 (sc), vehicle: water) 63 % of control; (dose: 2.0 mg/kg/injection, schedule: Q01DX010 (sc), vehicle: water) 6 % of control; (dose: 3.33 mg/kg/injection, schedule: Q04DX003 (sc), vehicle: water) 60 % of control; (dose: 6.65 mg/kg/injection, schedule: Q04DX003 (sc), vehicle: water) 18 % of control.
`CN(C)N=Nc1ccc(C(=O)O)cc1`: the T/C (dose: 50.0 mg/kg/injection, schedule: Q04DX003 (ip), vehicle: saline) was 2 % of control and 4 % of control; the T/C (dose: 400.0 mg/kg/injection, schedule: Q04DX003 (ip), vehicle: saline) was -62 % of control and -40 % of control.
For `CN(C)N=Nc1cccc(C(N)=O)c1`, the T/C is, setting by setting: (dose: 25.0 mg/kg/injection, schedule: Q04DX003 (sc), vehicle: Klucel (hydroxypropylcellulose) (HPC)) 20 % of control; (dose: 200.0 mg/kg/injection, schedule: Q04DX003 (sc), vehicle: Klucel (hydroxypropylcellulose) (HPC)) -93 % of control.
Take `NC(=O)/C=C/C(=O)c1c(Cl)cccc1Cl`: the T/C was 83 % of control (dose: 9.0 mg/kg/injection, schedule: Q04DX003 (sc), vehicle: saline with Tween-80) and 79 % of control (dose: 18.0 mg/kg/injection, schedule: Q04DX003 (sc), vehicle: saline with Tween-80).
As for `NC(N)=NOCC[C@@H](N)C(=O)O`, the T/C is, setting by setting: (dose: 300.0 mg/kg/injection, schedule: Q04DX003 (sc), vehicle: saline) 91 % of control; (dose: 600.0 mg/kg/injection, schedule: Q04DX003 (sc), vehicle: saline) 91 % of control; (dose: 1200.0 mg/kg/injection, schedule: Q04DX003 (sc), vehicle: saline) 82 % of control; (dose: 2400.0 mg/kg/injection, schedule: Q04DX003 (sc), vehicle: saline) 59 % of control.
In the case of `CC1CN1C(=O)NCCCCCCNC(=O)N1CC1C` (stereo not drawn), the T/C (dose: 20.0 mg/kg/injection, schedule: Q04DX003 (sc), vehicle: Klucel (hydroxypropylcellulose) (HPC)) was 68 % of control.
Regarding `CC(C)CCCCCCCCCCCCC(=O)NCC(=O)NC1C(C)OC(Nc2ncnc3nc[nH]c23)C(O)C1O` (stereo not drawn), the T/C (dose: 2.0 mg/kg/injection, schedule: Q01DX010 (sc), vehicle: saline with Tween-80) was 69 % of control; the T/C (dose: 4.0 mg/kg/injection, schedule: Q01DX010 (sc), vehicle: saline with Tween-80) was 40 % of control; the T/C (dose: 8.0 mg/kg/injection, schedule: Q01DX010 (sc), vehicle: saline with Tween-80) is 32 % of control; the T/C (dose: 16.0 mg/kg/injection, schedule: Q01DX010 (sc), vehicle: saline with Tween-80) was 17 % of control.
Turning to `CC(Oc1ccccc1-c1ccccc1)C(=O)N(C)C` (stereo not drawn), the T/C was 100 % of control (dose: 600.0 mg/kg/injection, schedule: Q04DX003 (sc), vehicle: saline with Tween-80); 116 % of control (dose: 1200.0 mg/kg/injection, schedule: Q04DX003 (sc), vehicle: saline with Tween-80); 107 % of control (dose: 2400.0 mg/kg/injection, schedule: Q04DX003 (sc), vehicle: saline with Tween-80).
For the compound `CNc1nc(N(C)C)nc(N(C)C)n1`, the T/C (dose: 30.0 mg/kg/injection, schedule: Q01DX010 (sc), vehicle: other) was 169 % of control and the T/C (dose: 60.0 mg/kg/injection, schedule: Q01DX010 (sc), vehicle: other) was 29 % of control.
